Reference: ChEMBL document CHEMBL1132239, “Tricyclic farnesyl protein transferase inhibitors: crystallographic and calorimetric studies of structure-activity relationships” (J Med Chem, 1999)

Tested on: not listed separately
Experiment: Dissociation constant of the Compound
Type: physicochemical
`O=C(Cc1cc[n+]([O-])cc1)N1CCN([C@H]2c3ccc(Cl)cc3CCc3cc(Br)cnc32)CC1` showed a Kd of 21 nM.
With `O=C(Cc1cc[n+]([O-])cc1)N1CCC(=C2c3ncc(Br)cc3CCc3cc(Cl)cc(Br)c32)CC1` the Kd was 5.1 nM.
With `O=C(Cc1cc[n+]([O-])cc1)N1CCC(=C2c3ccc(Cl)cc3CCc3cc(Br)cnc32)CC1` the Kd was 17.5 nM.
With `O=C(Cc1cc[n+]([O-])cc1)N1CCN([C@@H]2c3ccc(Cl)cc3CCc3cc(Br)cnc32)CC1` the Kd was 32 nM.
Work on `O=C(Cc1cc[n+]([O-])cc1)N1CCC(=C2c3ccc(Cl)cc3CCc3cccnc32)CC1` yielded a Kd of 240 nM.

Molecular target: Protein farnesyltransferase (Homo sapiens, UniProt P49354+P49356)
Experiment: Inhibition of Farnesyl protein transferase
Type: protein-complex assay
`O=C(Cc1cc[n+]([O-])cc1)N1CCC(=C2c3ncc(Br)cc3CCc3cc(Cl)cc(Br)c32)CC1` gave an IC50 of 3.9 nM.
`O=C(Cc1cc[n+]([O-])cc1)N1CCC(=C2c3ccc(Cl)cc3CCc3cc(Br)cnc32)CC1` showed an IC50 of 52 nM.
